# Organism: Rattus norvegicus
# Test: DrugMatrix - Regimen: Daily Repeat
# Assay type: toxicity, organism-based, Sprague-Dawley
# Design: regimen Daily Repeat, gender Male, age 6-8 weeks
# Details: in vivo, po, route oral GAVAGE, […]; for ABSOLUTE BASOPHIL / ABSOLUTE EOSINOPHIL / ABSOLUTE LYMPHOCYTE / ABSOLUTE MONOCYTE / ABSOLUTE SEGMENTED NEUTROPHIL / BASOPHIL / EOSINOPHIL / ERYTHROCYTE COUNT / HEMATOCRIT / HEMOGLOBIN / LEUKOCYTE COUNT / LYMPHOCYTE / MEAN CORPUSCULAR HEMOGLOBIN / MEAN CORPUSCULAR HEMOGLOBIN CONCENTRATION / MEAN CORPUSCULAR VOLUME / MONOCYTE / NEUTROPHIL / NUCLEATED RED BLOOD CELLS / PLATELET COUNT: tissue Blood; for ALANINE AMINOTRANSFERASE / ALBUMIN / ALKALINE PHOSPHATASE / ASPARTATE AMINOTRANSFERASE / BLOOD UREA NITROGEN / CARBON DIOXIDE / CHLORIDE / CHOLESTEROL / CREATINE PHOSPHOKINASE / CREATININE / GLUCOSE / LACTATE DEHYDROGENASE / LIPASE / PHOSPHORUS / POTASSIUM / SODIUM / TOTAL BILIRUBIN / TOTAL PROTEIN / URIC ACID: tissue Plasma
# [1] = 52 mg/kg, 72 h, dose level High, time 3 day
# [2] = 52 mg/kg, 120 h, dose level High, time 5 day
# [3] = 72 h, dose 5.2 mg/Kg, dose level Low, time 3 day
# [4] = 120 h, dose 5.2 mg/Kg, dose level Low, time 5 day
smiles,measurement,setting,value
CC(C(=O)O)c1cccc(Oc2ccccc2)c1 (configuration not stated) [FENOPROFEN],ABSOLUTE BASOPHIL,[1],0 CELLS/uL
same,ABSOLUTE EOSINOPHIL,[1],0 CELLS/uL
same,ABSOLUTE LYMPHOCYTE,[1],16297.67 CELLS/uL
same,ABSOLUTE MONOCYTE,[1],471.33 CELLS/uL
same,ABSOLUTE SEGMENTED NEUTROPHIL,[1],2164.33 CELLS/uL
same,BASOPHIL,[1],0%
same,EOSINOPHIL,[1],0%
same,ERYTHROCYTE COUNT,[1],5.47 x10E6/uL
same,HEMATOCRIT,[1],33.6%
same,HEMOGLOBIN,[1],13.27 G/DL
same,LEUKOCYTE COUNT,[1],18.93 x10E3/uL
same,LYMPHOCYTE,[1],87.33%
same,MEAN CORPUSCULAR HEMOGLOBIN,[1],24.23 pg
same,MEAN CORPUSCULAR HEMOGLOBIN CONCENTRATION,[1],39.5 G/DL
same,MEAN CORPUSCULAR VOLUME,[1],61.37 fL
same,MONOCYTE,[1],2.33%
same,NEUTROPHIL,[1],10.33%
same,NUCLEATED RED BLOOD CELLS,[1],0 /100WBC
same,PLATELET COUNT,[1],1245.33 x10E3/uL
same,ALANINE AMINOTRANSFERASE,[1],68.33 u/L
same,ALBUMIN,[1],3.93 G/DL
same,ALKALINE PHOSPHATASE,[1],437.33 u/L
same,ASPARTATE AMINOTRANSFERASE,[1],102 u/L
same,BLOOD UREA NITROGEN,[1],14.67 mg/dL
same,CARBON DIOXIDE,[1],28.67 mmol/L
same,CHLORIDE,[1],102.33 MEQ/L
same,CHOLESTEROL,[1],63.33 mg/dL
same,CREATINE PHOSPHOKINASE,[1],360.67 u/L
same,CREATININE,[1],0.15 mg/dL
same,GLUCOSE,[1],149.67 mg/dL
same,LACTATE DEHYDROGENASE,[1],593 u/L
same,LIPASE,[1],12 u/L
same,PHOSPHORUS,[1],11.6 mg/dL
same,POTASSIUM,[1],7.04 MEQ/L
same,SODIUM,[1],141.5 MEQ/L
same,TOTAL BILIRUBIN,[1],0.17 mg/dL
same,TOTAL PROTEIN,[1],5.37 G/DL
same,URIC ACID,[1],1.53 mg/dL
same,ABSOLUTE BASOPHIL,[2],0 CELLS/uL
same,ABSOLUTE EOSINOPHIL,[2],54 CELLS/uL
same,ABSOLUTE LYMPHOCYTE,[2],12815.33 CELLS/uL
same,ABSOLUTE MONOCYTE,[2],148.67 CELLS/uL
same,ABSOLUTE SEGMENTED NEUTROPHIL,[2],1848.67 CELLS/uL
same,BASOPHIL,[2],0%
same,EOSINOPHIL,[2],0.33%
same,ERYTHROCYTE COUNT,[2],5.11 x10E6/uL
same,HEMATOCRIT,[2],33%
same,HEMOGLOBIN,[2],13.3 G/DL
same,LEUKOCYTE COUNT,[2],14.87 x10E3/uL
same,LYMPHOCYTE,[2],85.67%
same,MEAN CORPUSCULAR HEMOGLOBIN,[2],26 pg
same,MEAN CORPUSCULAR HEMOGLOBIN CONCENTRATION,[2],40.3 G/DL
same,MEAN CORPUSCULAR VOLUME,[2],64.53 fL
same,MONOCYTE,[2],1%
same,NEUTROPHIL,[2],13%
same,NUCLEATED RED BLOOD CELLS,[2],0.33 /100WBC
same,PLATELET COUNT,[2],1200 x10E3/uL
same,ALANINE AMINOTRANSFERASE,[2],64.67 u/L
same,ALBUMIN,[2],4.13 G/DL
same,ALKALINE PHOSPHATASE,[2],380.33 u/L
same,ASPARTATE AMINOTRANSFERASE,[2],93.33 u/L
same,BLOOD UREA NITROGEN,[2],13.33 mg/dL
same,CARBON DIOXIDE,[2],23 mmol/L
same,CHLORIDE,[2],100.67 MEQ/L
same,CHOLESTEROL,[2],57.33 mg/dL
same,CREATINE PHOSPHOKINASE,[2],263.67 u/L
same,CREATININE,[2],0.17 mg/dL
same,GLUCOSE,[2],175 mg/dL
same,LACTATE DEHYDROGENASE,[2],284 u/L
same,LIPASE,[2],10.67 u/L
same,PHOSPHORUS,[2],12 mg/dL
same,POTASSIUM,[2],6.69 MEQ/L
same,SODIUM,[2],141.5 MEQ/L
same,TOTAL BILIRUBIN,[2],0.2 mg/dL
same,TOTAL PROTEIN,[2],5.3 G/DL
same,URIC ACID,[2],1.77 mg/dL
same,ABSOLUTE BASOPHIL,[3],0 CELLS/uL
same,ABSOLUTE EOSINOPHIL,[3],60.67 CELLS/uL
same,ABSOLUTE LYMPHOCYTE,[3],12618.67 CELLS/uL
same,ABSOLUTE MONOCYTE,[3],219.33 CELLS/uL
same,ABSOLUTE SEGMENTED NEUTROPHIL,[3],2034.67 CELLS/uL
same,BASOPHIL,[3],0%
same,EOSINOPHIL,[3],0.33%
same,ERYTHROCYTE COUNT,[3],5.49 x10E6/uL
same,HEMATOCRIT,[3],35%
same,HEMOGLOBIN,[3],14.13 G/DL
same,LEUKOCYTE COUNT,[3],14.93 x10E3/uL
same,LYMPHOCYTE,[3],84%
same,MEAN CORPUSCULAR HEMOGLOBIN,[3],25.83 pg
same,MEAN CORPUSCULAR HEMOGLOBIN CONCENTRATION,[3],40.37 G/DL
same,MEAN CORPUSCULAR VOLUME,[3],63.93 fL
same,MONOCYTE,[3],1.67%
same,NEUTROPHIL,[3],14%
same,NUCLEATED RED BLOOD CELLS,[3],0 /100WBC
same,PLATELET COUNT,[3],1213.67 x10E3/uL
same,ALANINE AMINOTRANSFERASE,[3],79.67 u/L
same,ALBUMIN,[3],3.83 G/DL
same,ALKALINE PHOSPHATASE,[3],345 u/L
same,ASPARTATE AMINOTRANSFERASE,[3],100.33 u/L
same,BLOOD UREA NITROGEN,[3],10.67 mg/dL
same,CARBON DIOXIDE,[3],29 mmol/L
same,CHLORIDE,[3],101 MEQ/L
same,CHOLESTEROL,[3],66 mg/dL
same,CREATINE PHOSPHOKINASE,[3],384 u/L
same,CREATININE,[3],0.14 mg/dL
same,GLUCOSE,[3],162.33 mg/dL
same,LACTATE DEHYDROGENASE,[3],245 u/L
same,LIPASE,[3],12.33 u/L
same,PHOSPHORUS,[3],11.73 mg/dL
same,POTASSIUM,[3],6.15 MEQ/L
same,SODIUM,[3],143.37 MEQ/L
same,TOTAL BILIRUBIN,[3],0.17 mg/dL
same,TOTAL PROTEIN,[3],5.43 G/DL
same,URIC ACID,[3],1.5 mg/dL
same,ABSOLUTE BASOPHIL,[4],0 CELLS/uL
same,ABSOLUTE EOSINOPHIL,[4],43 CELLS/uL
same,ABSOLUTE LYMPHOCYTE,[4],9244.67 CELLS/uL
same,ABSOLUTE MONOCYTE,[4],125.67 CELLS/uL
same,ABSOLUTE SEGMENTED NEUTROPHIL,[4],820 CELLS/uL
same,BASOPHIL,[4],0%
same,EOSINOPHIL,[4],0.33%
same,ERYTHROCYTE COUNT,[4],5.69 x10E6/uL
same,HEMATOCRIT,[4],34.97%
same,HEMOGLOBIN,[4],13.73 G/DL
same,LEUKOCYTE COUNT,[4],10.23 x10E3/uL
same,LYMPHOCYTE,[4],90.33%
same,MEAN CORPUSCULAR HEMOGLOBIN,[4],24.13 pg
same,MEAN CORPUSCULAR HEMOGLOBIN CONCENTRATION,[4],39.3 G/DL
same,MEAN CORPUSCULAR VOLUME,[4],61.43 fL
same,MONOCYTE,[4],1.33%
same,NEUTROPHIL,[4],8%
same,NUCLEATED RED BLOOD CELLS,[4],0 /100WBC
same,PLATELET COUNT,[4],1094 x10E3/uL
same,ALANINE AMINOTRANSFERASE,[4],64 u/L
same,ALBUMIN,[4],4.07 G/DL
same,ALKALINE PHOSPHATASE,[4],422.67 u/L
same,ASPARTATE AMINOTRANSFERASE,[4],91.67 u/L
same,BLOOD UREA NITROGEN,[4],12 mg/dL
same,CARBON DIOXIDE,[4],28 mmol/L
same,CHLORIDE,[4],102.33 MEQ/L
same,CHOLESTEROL,[4],57.33 mg/dL
same,CREATINE PHOSPHOKINASE,[4],306.67 u/L
same,CREATININE,[4],0.15 mg/dL
same,GLUCOSE,[4],153 mg/dL
same,LACTATE DEHYDROGENASE,[4],198.33 u/L
same,LIPASE,[4],11.67 u/L
same,PHOSPHORUS,[4],10.13 mg/dL
same,POTASSIUM,[4],6.12 MEQ/L
same,SODIUM,[4],142.33 MEQ/L
same,TOTAL BILIRUBIN,[4],0.13 mg/dL
same,TOTAL PROTEIN,[4],5.53 G/DL
same,URIC ACID,[4],1.17 mg/dL
